IC50 data for 18 compounds are collected here from patent US11220524B2, “Selective inhibitors of protein arginine methyltransferase 5 (PRMT5)” (PRELUDE THERAPEUTICS, INCORPORATED, priority 2017, dated 2022).

Assay [1] relates to Symmetric Di-Methyl Arginine (sDMA) in Granta-519 cells. The assay can be described thus: Western blot for symmetric di-methyl arginine (sDMA) marks in Granta cells, 3 days treatment. The note with it: Homo sapiens, 3 days. It counts as cell-based. How it is done: Cell Treatment and Western Blotting for Detecting Symmetric Di-Methyl Arginine (sDMA) and Histone H3R8 Dimethyl Symmetric (H3R8me2s) Marks
Initial compounds screening in A549 cells: Compounds were dissolved in DMSO to make 10 mM stock and further diluted to 0.1, and 1 mM. A549 cells were maintained in PRMI 1640 (Corning Cellgro, Catalog #: 10-040-CV) medium supplemented with 10% v/v FBS (GE Healthcare, Catalog #: SH30910.03). One day before experiment, 1.25×10^5 cells were seeded in 6 well plate in 3 mL medium and incubated overnight. The next day, medium was changed and 3 uL of compound solution was added (1:1,000 dilution, 0.1 and 1 uM final concentration; DMSO concentration: 0.1%), and incubated for 3 days. Cells incubated with DMSO was used as a vehicle control. Cells were washed once with PBS, trypsinized in 150 uL 0.25% Trypsin (Corning, Catalog #: 25-053-CI), neutralized with 1 mL complete medium, transferred to microcentrifuge tubes and collected. Cell pellet was then resuspended in 15 uL PBS, lysed in 4% SDS, and homogenized by passing through homogenizer column (Omega Biotek, Catalog #: HCR003). Total protein concentrations were determined by BCA assay (ThermoFisher Scientific, Catalog #: 23225). Lysates were mixed with 5× Laemmli buffer and boiled for 5 min. Forty ug of total protein was separated on SDS-PAGE gels (Bio-Rad, catalog #: 4568083, 4568043), transferred to PVDF membrane, blocked with 5% dry milk (Bio-Rad, Catalog #: 1706404) in TBS with 0.1% v/v Tween 20 (TBST) for 1 hour at room temperature (RT), and incubated with primary antibodies (sDMA: Cell signaling, Catalog #: 13222, 1:3,000; H3R8me2s: Epigentek, Catalog #: A-3706-100, 1:2,000; β-Actin: Abcam, Catalog #: ab8227, 1:10,000) in 5% dry milk in TBST at 4° C. for overnight. The next day, membranes were washed with TBST, 5×5 min, and incubated withhP conjugated seconded antibody (GE Healthcare; Catalog #: NA934-1ML; 1:5,000) for 2 hours at RT, followed by 5×5 min washes with TBST, and incubation with ECL substrates (Bio-Rad, Catalog #: 1705061, 1705062). Chemiluminescent signal was captured with FluoChem HD2 imager (Proteinsimple) and analyzed by ImageJ.
Cells incubated with DMSO was used as a vehicle control. Cells were harvested and subjected to western blot analysis as described above. SmD3me2s and H3R8me2s bands were quantified by ImageJ. Signals were normalized to β-Actin and DMSO control. IC50 values were calculated using Graphpad Prism.

The next assay concerns the target PRMT5/MEP50 complex (Homo sapiens (Human), UniProt O14744). Kind of assay: Biochemical assay: PRMT5/MEP50 methylation of histone H2A with 3H-SAM, filter plate scintillation. The following applies: biochemical potency; read-out: PRTMT5/MEP50 IC50. How it is done:
Biochemical Assay Protocol
Compounds were solubilized, and 3-fold diluted in 100% DMSO. […] Standard reactions were performed in a total volume of […] assay buffer, with histone H2A (5 μM final) as substrate. To this was added the PRMT5/MEP50 complex diluted to provide a final assay concentration of 5 nM and the compounds were allowed to preincubate for 15 to 20 minutes at room temperature. The reaction was initiated by adding S-[3H-methyl]-adenosyl-L-methionine (PerkinElmer) to final concentration of 1 μM. Following a 60 minutes incubation at 30° C., the reaction was stopped by adding 100 μL of 20% TCA. Each reaction was spotted onto filter plate (MultiScreen FB Filter Plate, Millipore), and washed 5 times with PBS buffer, Scintillation fluid was added to the filter plate and read in a scintillation counter. IC50 values were determined by fitting the data to the standard 4 parameters with Hill Slope using GraphPad Prism software.

[2] abbreviates: Granta-519, 72 h, Granta cell line.

Molecules are shown by their SMILES. Where a name gives a salt, the structure may show the parent alone.

PRMT5/MEP50 complex, sequence (O14744 whole entry): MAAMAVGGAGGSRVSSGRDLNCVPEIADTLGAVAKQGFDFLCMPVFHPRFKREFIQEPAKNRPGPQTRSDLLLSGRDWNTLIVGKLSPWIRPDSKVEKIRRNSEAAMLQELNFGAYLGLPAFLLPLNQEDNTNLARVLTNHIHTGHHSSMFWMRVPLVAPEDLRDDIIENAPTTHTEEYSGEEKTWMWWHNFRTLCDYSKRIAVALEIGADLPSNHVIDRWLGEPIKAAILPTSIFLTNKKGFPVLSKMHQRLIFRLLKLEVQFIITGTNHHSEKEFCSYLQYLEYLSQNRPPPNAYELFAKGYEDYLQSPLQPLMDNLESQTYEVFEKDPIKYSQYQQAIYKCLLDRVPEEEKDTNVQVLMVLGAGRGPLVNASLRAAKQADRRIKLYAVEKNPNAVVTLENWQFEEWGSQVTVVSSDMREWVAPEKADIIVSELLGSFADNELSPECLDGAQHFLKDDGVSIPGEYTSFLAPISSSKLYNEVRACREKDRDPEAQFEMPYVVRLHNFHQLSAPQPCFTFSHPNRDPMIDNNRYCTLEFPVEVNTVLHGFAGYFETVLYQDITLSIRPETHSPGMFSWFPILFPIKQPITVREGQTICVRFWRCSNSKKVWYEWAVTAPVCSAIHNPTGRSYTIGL
PRMT5/MEP50 complex, sequence (Q9BQA1 whole entry partner): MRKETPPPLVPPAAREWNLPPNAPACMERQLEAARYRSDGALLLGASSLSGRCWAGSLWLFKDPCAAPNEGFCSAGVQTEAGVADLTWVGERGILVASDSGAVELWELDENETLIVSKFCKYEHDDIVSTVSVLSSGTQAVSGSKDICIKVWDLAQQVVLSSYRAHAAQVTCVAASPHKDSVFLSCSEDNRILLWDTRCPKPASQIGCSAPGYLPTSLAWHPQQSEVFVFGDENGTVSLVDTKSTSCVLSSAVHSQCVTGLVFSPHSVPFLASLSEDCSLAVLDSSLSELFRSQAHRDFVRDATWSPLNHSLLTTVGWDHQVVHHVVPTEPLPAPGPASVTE

With `CC(c1ccc(Cl)cc1)C1O[C@@H](n2ccc3c(N)ncnc32)[C@H](O)[C@@H]1O` (stereo in doubt) [Example 6-C, (2R,3R,4S,5S)-2-(4-amino-7H-pyrrolo[2,3-d]pyrimidin-7-yl)-5-(1-(4-chlorophenyl)ethyl)tetrahydrofuran-3,4-diol], the IC50 in assay [1] (setting [2]) was 93 nM; on PRMT5/MEP50 complex, 6.9 nM.

`Cc1cc([C@@](C)(O)[C@H]2O[C@@H](n3cnc4c(N)ncnc43)[C@H](O)[C@@H]2O)ccc1Cl` [Example 2-C, (2R,3R,4S,5S)-2-(6-amino-9H-purin-9-yl)-5-((R)-1-(4-chloro-3-methylphenyl)-1-hydroxyethyl)tetrahydrofuran-3,4-diol]: the IC50 came to 13 nM in assay [1] (setting [2]) and 13.5 nM on PRMT5/MEP50 complex.

Consider `C[C@@](O)(c1ccc(Cl)c(Cl)c1)[C@H]1O[C@@H](n2cc(F)c3c(N)ncnc32)[C@H](O)[C@@H]1O` [Example 3-C, (2R,3R,4S,5S)-2-(4-amino-5-fluoro-7H-pyrrolo[2,3-d]pyrimidin-7-yl)-5-((R)-1-(3,4-dichlorophenyl)-1-hydroxyethyl)tetrahydrofuran-3,4-diol], for which the IC50 turned out to be 3.8 nM in assay [1] (setting [2]) and 0.9 nM at PRMT5/MEP50 complex.

As for `C[C@@H](c1ccc(Cl)cc1)[C@H]1O[C@@H](n2ccc3c(N)ncnc32)[C@H](O)[C@@H]1O` [Example 5-C, (2R,3R,4S,5R)-2-(4-amino-7H-pyrrolo[2,3-d]pyrimidin-7-yl)-5-((S)-1-(4-chlorophenyl)ethyl)tetrahydrofuran-3,4-diolhydrochloride], the IC50 in assay [1] (setting [2]) was 91 nM.

As to `C[C@@](O)(c1ccc(Cl)c(F)c1)[C@H]1O[C@@H](n2cc(F)c3c(N)ncnc32)[C@H](O)[C@@H]1O` [Example 15-C, (2R,3R,4S,5S)-2-(4-amino-5-fluoro-7H-pyrrolo[2,3-d]pyrimidin-7-yl)-5-((R)-1-(4-chloro-3-fluorophenyl)-1-hydroxyethyl)tetrahydrofuran-3,4-diol], the IC50 in assay [1] (setting [2]) is 1.9 nM; on PRMT5/MEP50 complex, 1 nM.

Consider `C[C@@](O)(c1ccc(Cl)s1)[C@H]1O[C@@H](n2ccc3c(N)ncnc32)[C@H](O)[C@@H]1O` [Example 21-C, (2R,3R,4S,5S)-2-(4-amino-7H-pyrrolo[2,3-d]pyrimidin-7-yl)-5-((S)-1-(5-chlorothiophen-2-yl)-1-hydroxyethyl)tetrahydrofuran-3,4-diol], for which the IC50 in assay [1] (setting [2]) was determined as 7 nM; on PRMT5/MEP50 complex, 0.9 nM.

In the case of `N/N=c1/nc[nH]c2c1ccn2[C@@H]1C[C@H]([C@H](O)c2ccc(Cl)cc2)[C@@H](O)[C@H]1O` [Example 25-B, 7-[(1R,2S,3R,4R)-4-[(S)-(4-chlorophenyl)-hydroxy-methyl]-2,3-dihydroxy-cyclopentyl]-1H-pyrrolo[2,3-d]pyrimidin-4-one hydrazone hydrochloride], the IC50 in assay [1] (setting [2]) is around 3000 nM; at PRMT5/MEP50 complex, 47 nM.

As for `N/N=c1/nc[nH]c2c1ccn2[C@@H]1C[C@H]([C@H](O)c2ccc(F)c(F)c2)[C@@H](O)[C@H]1O` [Example 37-B, 7-[(1R,2S,3R,4R)-4-[(S)-(3,4-difluorophenyl)-hydroxy-methyl]-2,3-dihydroxy-cyclopentyl]-1H-pyrrolo[2,3-d]pyrimidin-4-one hydrazone hydrochloride], the IC50 in assay [1] (setting [2]) is 100000 nM; at PRMT5/MEP50 complex, 6.3 nM.

For the compound `O/N=c1/nc[nH]c2c1ccn2[C@@H]1C[C@H]([C@H](O)c2ccc(Cl)cc2)[C@@H](O)[C@H]1O` [Example 50-B, 7-[(1R,2S,3R,4R)-4-[(S)-(4-chlorophenyl)-hydroxy-methyl]-2,3-dihydroxy-cyclopentyl]-1H-pyrrolo[2,3-d]pyrimidin-4-one oxime hydrochloride], the values for the IC50 (in assay [1] (setting [2]); on PRMT5/MEP50 complex) were around 600 nM and 11.7 nM, respectively.

On to `CN(N)c1ncnc2c1ccn2[C@@H]1C[C@H](CCc2ccc3ccc(NCC4CC4)nc3c2)[C@@H](O)[C@H]1O` [Example 79-B, (1S,2R,3S,5R)-3-(2-(2-((cyclopropylmethyl)amino)quinolin-7-yl)ethyl)-5-(4-(1-methylhydrazineyl)-7H-pyrrolo[2,3-d]pyrimidin-7-yl)cyclopentane-1,2-diol], for which the IC50 in assay [1] (setting [2]) was 97 nM; on PRMT5/MEP50 complex it was 8.2 nM.

Take `CCO/N=c1\nc[nH]c2c1ccn2[C@@H]1O[C@H]([C@](C)(O)c2ccc(Cl)cc2)[C@@H](O)[C@H]1O` [Example 83, 7-((2R,3R,4S)-5-((R)-1-(4-chlorophenyl)-1-hydroxyethyl)-3,4-dihydroxytetrahydrofuran-2-yl)-1,7-dihydro-4H-pyrrolo[2,3-d]pyrimidin-4-one O-ethyl oxime]: the IC50 in assay [1] (72 h, Granta-519 cell line) is 97 nM.

Regarding `CNc1ccc2ccc(CC[C@H]3C[C@@H](n4ccc5/c(=N/OC)nc[nH]c54)[C@H](O)[C@@H]3O)cc2n1` [Example 84-B, 7-((1R,2S,3R,4S)-2,3-dihydroxy-4-(2-(2-(methylamino)quinolin-7-yl)ethyl)cyclopentyl)-1,7-dihydro-4H-pyrrolo[2,3-d]pyrimidin-4-one O-methyl oxime], the IC50 in assay [1] (setting [2]) was found to be 16 nM; at PRMT5/MEP50 complex, 2.7 nM.

In the case of `CO/N=c1\nc[nH]c2c1ccn2[C@@H]1C[C@H](CCc2ccc3ccc(N)nc3c2)[C@@H](O)[C@H]1O` [Example 85-B, 7-((1R,2S,3R,4S)-4-(2-(2-aminoquinolin-7-yl)ethyl)-2,3-dihydroxycyclopentyl)-1,7-dihydro-4H-pyrrolo[2,3-d]pyrimidin-4-one O-methyl oxime], the IC50 was 0.9 nM in assay [1] (setting [2]) and 0.64 nM at PRMT5/MEP50 complex.

For `CO/N=c1\nc[nH]c2c1ccn2[C@@H]1C[C@H](CCc2ccc3cc(Cl)c(N)nc3c2)[C@@H](O)[C@H]1O` [Example 86-B, (Z)-7-((1R,2S,3R,4S)-4-(2-(2-amino-3-chloroquinolin-7-yl)ethyl)-2,3-dihydroxycyclopentyl)-3,7-dihydro-4H-pyrrolo[2,3-d]pyrimidin-4-one O-methyl oxime], the IC50 in assay [1] (setting [2]) came out at 3 nM; at PRMT5/MEP50 complex, 0.2 nM.

Regarding `O/N=c1\nc[nH]c2c1ccn2[C@@H]1C[C@H](CCc2ccc3ccc(NCC4CC4)nc3c2)[C@@H](O)[C@H]1O` [Example 87-B, 7-((1R,2S,3R,4S)-4-(2-(2-((cyclopropylmethyl)amino)quinolin-7-yl)ethyl)-2,3-dihydroxycyclopentyl)-1,7-dihydro-4H-pyrrolo[2,3-d]pyrimidin-4-one oxime], the IC50 stood at 1.7 nM in assay [1] (setting [2]) and 0.33 nM on PRMT5/MEP50 complex.

On to `CN/N=c1\nc[nH]c2c1ccn2[C@@H]1C[C@H](CCc2ccc3ccc(NCC4CC4)nc3c2)[C@@H](O)[C@H]1O` [Example 91-B, (1S,2R,3S,5R)-3-(2-(2-((cyclopropylmethyl)amino)quinolin-7-yl)ethyl)-5-((Z)-4-(2-methylhydrazineylidene)-1,4-dihydro-7H-pyrrolo[2,3-d]pyrimidin-7-yl)cyclopentane-1,2-diol], for which the IC50 in assay [1] (setting [2]) came to 46.8 nM; at PRMT5/MEP50 complex, 3.2 nM.

For the compound `CO/N=c1\nc[nH]c2c1ccn2[C@@H]1C[C@H]([C@H](O)c2ccc(Cl)c(Cl)c2)[C@@H](O)[C@H]1O` [Example 92-B, 7-((1R,2S,3R,4R)-4-((S)-(3,4-dichlorophenyl)(hydroxy)methyl)-2,3-dihydroxycyclopentyl)-1,7-dihydro-4H-pyrrolo[2,3-d]pyrimidin-4-one O-methyl oxime], the IC50 in assay [1] (setting [2]) came to 335 nM; on PRMT5/MEP50 complex it was 19.9 nM.

`CO/N=c1/nc[nH]c2c1ccn2[C@@H]1O[C@H]([C@](C)(O)c2ccc(Cl)c(F)c2)[C@@H](O)[C@H]1O` [Example 96] registered an IC50 in assay [1] (72 h, Granta-519 cell line) of 142 nM.
